Assay results from PubChem BioAssay (NCI).
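These data come from cells grown in 96-well plates and exposed to compound for 48 hours at five concentrations. TGI denotes the concentration required for complete inhibition of growth.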

Key:
Assay in all cases: inhibition of tumour cell growth, NCI panel, 48 h
786-0 renal = tested on: 786-0 renal
A498 renal = tested on: A498 renal
A549 NSCLC = tested on: A549 NSCLC
ACHN renal = tested on: ACHN renal
CAKI-1 renal = tested on: CAKI-1 renal
CCRF-CEM leukemia = tested on: CCRF-CEM leukemia
COLO 205 colon = tested on: COLO 205 colon
DLD-1 colon = tested on: DLD-1 colon
DMS 114 small cell lung = tested on: DMS 114 small cell lung
DMS 273 small cell lung = tested on: DMS 273 small cell lung
EKVX NSCLC = tested on: EKVX NSCLC
HCC-2998 colon = tested on: HCC-2998 colon
HCT-15 colon = tested on: HCT-15 colon
HOP-18 NSCLC = tested on: HOP-18 NSCLC
HT29 colon = tested on: HT29 colon
IGROV1 ovarian = tested on: IGROV1 ovarian
K-562 leukemia = tested on: K-562 leukemia
KM12 colon = tested on: KM12 colon
KM20L2 colon = tested on: KM20L2 colon
LOX IMVI melanoma = tested on: LOX IMVI melanoma
LXFL 529 NSCLC = tested on: LXFL 529 NSCLC
MALME-3M melanoma = tested on: MALME-3M melanoma
MOLT-4 leukemia = tested on: MOLT-4 leukemia
NCI-H226 lung = tested on: NCI-H226 lung
NCI-H23 lung = tested on: NCI-H23 lung
NCI-H460 lung = tested on: NCI-H460 lung
OVCAR-3 ovarian = tested on: OVCAR-3 ovarian
OVCAR-4 ovarian = tested on: OVCAR-4 ovarian
OVCAR-5 ovarian = tested on: OVCAR-5 ovarian
OVCAR-8 ovarian = tested on: OVCAR-8 ovarian
RPMI-8226 leukemia = tested on: RPMI-8226 leukemia
RXF 393 renal = tested on: RXF 393 renal
SF-268 CNS = tested on: SF-268 CNS
SF-295 CNS = tested on: SF-295 CNS
SK-MEL-2 melanoma = tested on: SK-MEL-2 melanoma
SK-MEL-28 melanoma = tested on: SK-MEL-28 melanoma
SK-MEL-5 melanoma = tested on: SK-MEL-5 melanoma
SK-OV-3 ovarian = tested on: SK-OV-3 ovarian
SN12C renal = tested on: SN12C renal
SNB-19 CNS = tested on: SNB-19 CNS
SNB-75 CNS = tested on: SNB-75 CNS
SNB-78 CNS = tested on: SNB-78 CNS
SW-620 colon = tested on: SW-620 colon
TK-10 renal = tested on: TK-10 renal
U251 CNS = tested on: U251 CNS
UACC-257 melanoma = tested on: UACC-257 melanoma
UACC-62 melanoma = tested on: UACC-62 melanoma
UO-31 renal = tested on: UO-31 renal
BT-549 breast = tested on: BT-549 breast
DU-145 prostate = tested on: DU-145 prostate
HCT-116 colon = tested on: HCT-116 colon
HL-60(TB) leukemia = tested on: HL-60(TB) leukemia
HOP-62 NSCLC = tested on: HOP-62 NSCLC
HOP-92 NSCLC = tested on: HOP-92 NSCLC
HS 578T breast = tested on: HS 578T breast
M14 melanoma = tested on: M14 melanoma
MCF7 breast = tested on: MCF7 breast
MDA-MB-231 breast = tested on: MDA-MB-231 breast
MDA-MB-435 = tested on: MDA-MB-435
MDA-N = tested on: MDA-N
NCI-H522 lung = tested on: NCI-H522 lung
NCI/ADR-RES ovarian = tested on: NCI/ADR-RES ovarian
PC-3 prostate = tested on: PC-3 prostate
SF-539 CNS = tested on: SF-539 CNS
SR leukemia = tested on: SR leukemia
T-47D breast = tested on: T-47D breast

Q: What does the source list for `COC1C(OC(=O)c2ccc(C)[nH]2)C(O)C(Oc2ccc3c(O)c(NC(=O)c4c[nH]c(C(=O)Nc5c(O)c6ccc(OC7OC(C)(C)C(OC)C(OC(=O)c8ccc(C)[nH]8)C7O)c(C)c6oc5=O)c4C)c(=O)oc3c2C)OC1(C)C` (configuration not stated)?
A: TGI (786-0 renal): 5.42 µM; TGI (A498 renal): 4.8 µM; TGI (A549 NSCLC): 61.3 µM; TGI (ACHN renal): 9.43 µM; TGI (CAKI-1 renal): 6.08 µM; TGI (CCRF-CEM leukemia): 10.6 µM; TGI (COLO 205 colon): 4.38 µM; TGI (DLD-1 colon): 6.08 µM; TGI (DMS 114 small cell lung): 6.75 µM; TGI (DMS 273 small cell lung): 12.2 µM; TGI (EKVX NSCLC): 19.2 µM; TGI (HCC-2998 colon): 7.26 µM; TGI (HCT-15 colon): 7.06 µM; TGI (HOP-18 NSCLC): 3.37 µM; TGI (HT29 colon): 16.1 µM; TGI (IGROV1 ovarian): 3.62 µM; TGI (K-562 leukemia): > 100 µM; TGI (KM12 colon): 8.89 µM; TGI (KM20L2 colon): 15.6 µM; TGI (LOX IMVI melanoma): 9.4 µM; TGI (LXFL 529 NSCLC): 8.03 µM; TGI (MALME-3M melanoma): 5.02 µM; TGI (MOLT-4 leukemia): 8.47 µM; TGI (NCI-H226 lung): 3.84 µM; TGI (NCI-H23 lung): 3.84 µM; TGI (NCI-H460 lung): 6.62 µM; TGI (OVCAR-3 ovarian): 41.1 µM; TGI (OVCAR-4 ovarian): 6.82 µM; TGI (OVCAR-5 ovarian): 9.96 µM; TGI (OVCAR-8 ovarian): > 100 µM; TGI (RPMI-8226 leukemia): 4.83 µM; TGI (RXF 393 renal): 2.23 µM; TGI (SF-268 CNS): 7.44 µM; TGI (SF-295 CNS): > 100 µM; TGI (SK-MEL-2 melanoma): 4.42 µM; TGI (SK-MEL-28 melanoma): 2.25 µM; TGI (SK-MEL-5 melanoma): 6.51 µM; TGI (SK-OV-3 ovarian): 4.58 µM; TGI (SN12C renal): 7.16 µM; TGI (SNB-19 CNS): 6.1 µM; TGI (SNB-75 CNS): 4.85 µM; TGI (SNB-78 CNS): 7.37 µM; TGI (SW-620 colon): 45.9 µM; TGI (TK-10 renal): 37.3 µM; TGI (U251 CNS): 2.89 µM; TGI (UACC-257 melanoma): 33.5 µM; TGI (UACC-62 melanoma): 2.37 µM; TGI (UO-31 renal): 2.94 µM

Q: Which TGI (786-0 renal) does the source give for `C[C@]12CC[C@H]3[C@@H](CCC4=CC(=O)C=C[C@@]43OC(=O)C(F)(F)F)[C@@H]1CCC2=O` here?
A: > 83.5 µM

Q: And the TGI (A498 renal)?
A: > 100 µM

Q: What about the TGI (A549 NSCLC) of the same molecule?
A: > 100 µM

Q: And the TGI (ACHN renal)?
A: > 100 µM

Q: What about the TGI (BT-549 breast) of the same molecule?
A: > 100 µM

Q: And the TGI (CAKI-1 renal)?
A: > 100 µM

Q: What about the TGI (CCRF-CEM leukemia) of the same molecule?
A: > 100 µM

Q: And the TGI (COLO 205 colon)?
A: > 100 µM

Q: What about the TGI (DU-145 prostate) of the same molecule?
A: > 100 µM

Q: And the TGI (EKVX NSCLC)?
A: > 100 µM

Q: What about the TGI (HCC-2998 colon) of the same molecule?
A: > 100 µM

Q: And the TGI (HCT-116 colon)?
A: > 56 µM

Q: What about the TGI (HCT-15 colon) of the same molecule?
A: > 100 µM

Q: What about the TGI (HL-60(TB) leukemia) of the same molecule?
A: > 100 µM

Q: What about the TGI (HOP-62 NSCLC) of the same molecule?
A: > 100 µM

Q: What about the TGI (HOP-92 NSCLC) of the same molecule?
A: > 100 µM

Q: What about the TGI (HS 578T breast) of the same molecule?
A: > 100 µM

Q: And the TGI (HT29 colon)?
A: > 100 µM

Q: What about the TGI (IGROV1 ovarian) of the same molecule?
A: > 100 µM

Q: What about the TGI (K-562 leukemia) of the same molecule?
A: > 100 µM

Q: And the TGI (KM12 colon)?
A: > 100 µM

Q: And the TGI (LOX IMVI melanoma)?
A: > 100 µM

Q: What about the TGI (M14 melanoma) of the same molecule?
A: > 100 µM

Q: What about the TGI (MALME-3M melanoma) of the same molecule?
A: > 100 µM

Q: And the TGI (MCF7 breast)?
A: > 100 µM

Q: And the TGI (MDA-MB-231 breast)?
A: > 100 µM

Q: And the TGI (MDA-MB-435)?
A: > 100 µM

Q: What about the TGI (MDA-N) of the same molecule?
A: > 100 µM

Q: And the TGI (MOLT-4 leukemia)?
A: > 100 µM

Q: And the TGI (NCI-H226 lung)?
A: > 100 µM

Q: What about the TGI (NCI-H23 lung) of the same molecule?
A: > 100 µM

Q: What about the TGI (NCI-H460 lung) of the same molecule?
A: > 100 µM

Q: And the TGI (NCI-H522 lung)?
A: > 100 µM

Q: And the TGI (NCI/ADR-RES ovarian)?
A: > 100 µM

Q: And the TGI (OVCAR-3 ovarian)?
A: > 100 µM

Q: And the TGI (OVCAR-4 ovarian)?
A: > 100 µM

Q: And the TGI (OVCAR-5 ovarian)?
A: > 100 µM

Q: And the TGI (OVCAR-8 ovarian)?
A: > 100 µM

Q: What about the TGI (PC-3 prostate) of the same molecule?
A: > 100 µM

Q: And the TGI (RPMI-8226 leukemia)?
A: > 100 µM

Q: What about the TGI (RXF 393 renal) of the same molecule?
A: > 100 µM

Q: What about the TGI (SF-268 CNS) of the same molecule?
A: > 100 µM

Q: What about the TGI (SF-295 CNS) of the same molecule?
A: > 100 µM

Q: What about the TGI (SF-539 CNS) of the same molecule?
A: > 100 µM

Q: And the TGI (SK-MEL-2 melanoma)?
A: > 100 µM

Q: And the TGI (SK-MEL-28 melanoma)?
A: > 100 µM

Q: And the TGI (SK-MEL-5 melanoma)?
A: > 100 µM

Q: What about the TGI (SK-OV-3 ovarian) of the same molecule?
A: > 100 µM

Q: And the TGI (SN12C renal)?
A: > 100 µM

Q: And the TGI (SNB-19 CNS)?
A: > 100 µM

Q: And the TGI (SNB-75 CNS)?
A: > 100 µM

Q: And the TGI (SR leukemia)?
A: > 100 µM

Q: What about the TGI (SW-620 colon) of the same molecule?
A: > 100 µM

Q: And the TGI (T-47D breast)?
A: > 100 µM

Q: What about the TGI (TK-10 renal) of the same molecule?
A: > 100 µM

Q: What about the TGI (U251 CNS) of the same molecule?
A: > 100 µM

Q: What about the TGI (UACC-257 melanoma) of the same molecule?
A: > 100 µM

Q: And the TGI (UACC-62 melanoma)?
A: > 100 µM

Q: And the TGI (UO-31 renal)?
A: > 100 µM
